Structures are written as SMILES.

In one series the test system is NB xenografts. Also on record: method as in PMID 23733953. Particulars: cited from earlier work.
The next series relates to TH-MYCN transgenic mice. Also on record: method as in PMID 23733953. Particulars: cited from earlier work.
The next series deals with Kelly cells. Briefly: Apoptosis, propidium iodide sub G1 DNA content, Kelly. In kind it is cell-based, human. On the procedure: (§1) Figure 5 Growth inhibition and apoptosis induction in MYCN amplified cells. (A) The amount of viable of cells was determined using crystal violet assay following 48 hours treatment of Kelly cells with increasing concentration of the indicated compound. Data are shown as percent of control (DMSO) treated cells and represent the mean of three independent experiments. Error bars indicate standard deviation. (B) Pearson's correlation between the IC50 values in the growth inhibition assay (A, Table 2) and the KD values for binding to MYCN (Table 1). (C–D) Quantification of apoptosis by propidium iodide staining for sub G1 DNA content of SK-N-BE(2) (C) and Kelly (D) cells. Data represent the means of at least three independent experiments. Error bars indicate standard deviation. We next investigated the level of apoptosis induction in response to treatment with the molecules using two different MNA NB cell lines (Figure 5C, D). […] To verify the MYCN specificity in apoptosis induction, we next used Tet21N NB cells with doxycycline regulated MYCN expression. […] Small molecule-induced apoptosis was scored by quantifying the sub-G0/G1 fraction of the cell cycle. […] Cells were stained with propidium iodide solution (5 µg/ml propidium iodide and 25 µg/ml RNase A in PBS) for 30 min at 37°C and analyzed in a FACScan flow cytometer (Becton Dickinson). […]

For series [1], the system named is SK-N-BE(2) cells. Briefly: Oil Red O staining of lipids. The format is cell-based, human. Conditions: sub-lethal concentrations, 3 days.
Protocol: To explore the effect on lipid accumulation of the small molecules studied here cells were treated with sub-lethal concentrations of the compounds and stained with Oil Red O in order to detect lipids.
SK-N-BE(2) cells grown on cover slips were fixed in 4% PFA, washed in PBS and then in 60% isopropanol before staining with filtered Oil Red O solution (2 mg/ml) in 60% isopropanol. Cells were washed briefly in distilled water and mounted onto glass slides using water-soluble mounting medium (Aqua Pertex, Histolab products AB). For visualization, bright field images were captured at 40X magnification using an Axiovert 40 CFL inverted fluorescence microscope (Zeiss) and Axiovision Rel. 4.8 software.
Series [2] has as its system SK-N-BE(2) cells. In words: Apoptosis, propidium iodide sub G1 DNA content, SK-N-BE(2). In kind it is cell-based, human. How it is done:
as §1

Series [3] can be described thus: Solubility in aqueous buffers (SPR running buffer). The format is physicochemical. Conditions: could not be analyzed at concentrations above 50 µM. How it is done: For all SPR binding measurements the compounds were injected at increasing concentrations.

Turning to `CCc1ccc(C=C2SC(=S)NC2=O)cc1` [Compound 10058-F4, [Z,E]-5-[4-ethylbenzylidine]-2-thioxothiazolidin-4-one], the “anti-tumor effects in NB xenografts” value in the series on NB xenografts is “showed anti-tumor effects”. Further, the “survival of TH-MYCN transgenic mice” value in the series on TH-MYCN transgenic mice is “increased the survival”.
For the compound `O=[N+]([O-])c1ccc(Nc2ccccc2-c2ccccc2)c2nonc12` [Compound 10074-G5], the “apoptosis (cell death) induction relative to 10058-F4” value with Kelly cells and in the series with SK-N-BE(2) cells [2] was “more potent than 10058-F4 in inducing cell death” each time. Besides, in the series with SK-N-BE(2) cells [1], the lipid droplet accumulation entry was “smaller but more numerous lipid droplets”. Besides, in series [3], the “solubility in aqueous buffers” value was “especially poor solubility in aqueous buffers”.
